Key:
[1] = Solubility in fats and oils (turbidity of salad oil, absorbance at 660nm); assay type: physicochemical; conditions: sample added to salad oil (Honen Corporation) at 100ppm; turbidity as absorbance at 660nm; Control 0.057; lower = better dissolved
Description: Each sample was added to salad oil (Honen Corporation) in a concentration of 100ppm, and turbidity was determined by measuring absorbance at 660nm.

[2] = Antioxidative activity in salad oil, Rancimat method (induction time); conditions: 100ppm in salad oil, 120°C, Control 3.40
Description: We investigated the antioxidative activity of the acylated derivatives of (-)-epigallocatechin, one of the most powerful antioxidants in tea. […] (The reaction was conducted at a temperature of 120°C).

Compound	OD 660 [1]	Induction Time [2] [h]
Oc1cc(O)c2c(c1)O[C@H](c1cc(O)c(O)c(O)c1)[C@H](O)C2 [(-)-Epigallocatechin, (-)-epigallocatechin]	0.277	6.03
CCC(=O)O[C@@H]1Cc2c(O)cc(O)cc2O[C@@H]1c1cc(O)c(O)c(O)c1 [(-)-3-0-Propionyl epigallocatechin, (-)-3-0-propionyl epigallocatechin]		6.02
CCCC(=O)O[C@@H]1Cc2c(O)cc(O)cc2O[C@@H]1c1cc(O)c(O)c(O)c1 [(-)-3-0-Butyryl epigallocatechin, (-)-3-0-butyryl-epigallocatechin]		6.07

Reference: patent EP0618203A1, “3-O-acylated catechins and method of producing same” (MITSUI NORIN CO., LTD., priority 1993, dated 1994)
